Columns and labels:
B6D2F1 mice = test: Delayed type hypersensitivity to SRBC, footpad swelling; assay type: in vivo
Description: Delayed type hypersensitivity was induced in the footpad of B6D2F1 mice and swelling measured in mm. Spermine dialdehyde was administered i.p. and i.m. at various timeperiods.
Delayed type hypersensitivity was induced in the footpad of B6D2F1 mice by using sheep red blood cells (SRBC) as the antigen. Briefly, 0.2 ml of 0.01% SRBC was injected i.v. into B6D2F1 mice. Four days later, they were challenged in the footpad with 50 µl of 20% SRBC. Swelling of the footpad was measured 24, 48, and 72 hours later. Spermine dialdehyde was administered i.p. initiating from the day before immunization. After challenge in the footpad, B6D2F1 mice were given an intramuscular (i.m.) injection beside the challenge site one hour after challenge. Some mice received no i.p. administration and were only given one i.m. injection after the challenge.

Human B lymphocytes = test: Pokeweed mitogen driven human B cell proliferation after 1 hour incubation; assay type: cell-based; conditions: compared with T cells; Figure 1
Description: Human T & B lymphocytes were incubated separately with different concentrations of spermine dialdehyde in vitro for 1 hour. Cells were washed extensively and set up in a PHA (for T cell) or PWM (B cell) proliferation assay. A graph is depicted wherein percentage of response is plotted as a function of concentration of spermine dialdehyde.
Peripheral blood lymphocytes (PBL) were obtained from the blood of normal donors by using standard Ficoll-Hypaque gradient techniques. The T and non-T cells were separated by standard sheep red blood cell (SRBC) rosetting technique. Briefly, 5 x 10⁶/ml PBL were incubated with 1% neuraminidase-treated SRBC, and rosetted cells were separated from non-rosetted cells in a Ficoll-Hypaque gradient. The rosetted cells were designated as T cells. Purified B lymphocytes were obtained from non-rosetted cells by removal of residual T cells using the Pan T monoclonal antibody OKT 11 and complement.
T cell proliferation: 7 x 10⁴ - 10⁵ human T lymphocytes were cultured in flat bottom microtiter plates (Flow) in the presence of 0.1% PHA-P or 1/64 PWM for 4 days. 3H-thymidine (0.1 MCi/well) was added for the last 6 hours of the culture period. […] Cell associated radioactivity was determined by scintillation counting in an automated counter. All of the results were expressed as % response calculated according to the formula: [formula] […]

Ornithine decarboxylase = Ornithine decarboxylase (Mus musculus, UniProt P00860); test: Ornithine decarboxylase inhibition; assay type: biochemical; conditions: Figure 10
Description: The figure illustrates the comparative profile of the inhibition of key regulatory enzymes of polyamine synthesis by SDA, its analogue, butyl dialdehyde (BDA), difluoromethyl orinithine (DFMO) and methyl glyoxal bis (guanylhydrazone) (MGBG).

Murine bone marrow cells = test: Con A driven mouse bone marrow cell proliferation ([3H]-thymidine incorporation); assay type: cell-based
Description: Mouse spleen and bone marrow cells were incubated separately with different concentrations of spermine dialdehyde in vitro for 1 hour. Cells were washed extensively and set up in a Con A stimulated proliferation assay. A graph is depicted wherein percentage response is plotted as a function of various concentrations of spermine dialdehyde.
Mice were sacrificed by cervical dislocation and disinfected by dipping in a Dettol solution. Bone marrow cells were obtained from suitable long bones by flushing with a […] needle. Cells were then washed three times with RPMI before use.
Mouse spleen cells were cultured for 3 days in flat bottom microtiter relates at 10⁵ cells per well in the presence of […] of Con A. 3H-thymidine (0.1 microcurie/well) was added for the last 4-6 hours of the culture period. Cells were harvested as described above.
Mouse bone marrow and spleen cells were each incubated for 1 hour with different concentrations of spermine dialdehyde. Cells were then washed 3 times with RPMI and set up in a Con A driven proliferation assay. Results are depicted in Figure 2.
For [³H]-thymidine incorporation, drug or vehicle treated bone marrow or spleen cells were plated in RPMI-1640, containing 10% fetal bovine serum, 10 µM β-mercaptoethanol, 25 mM HEPES and 2 mM glutamine. Con-A (4 µg/ml and […]) was used as mitogens for bone marrow and spleen cells. […]

C3H mice = test: Skin graft transplant (Balb/c skin onto C3H mice); assay type: in vivo
Description: Spermine dialdehyde was administered s.c, right after transplantation and continued throughout the study. Cyclosporin A (CsA) was run along as a positive control.

ALDH = ALDH assay in L1210/0 cells; assay type: biochemical, Murine; conditions: SDA as substrate
Description: Cultured murine leukemic cells and livers (excised from mice immediately after cervical dislocation) were homogenized in 3 volumes of ice-cold 1.15% KCl and 1 mM EDTA. The homogenate was centrifuged at 100,000 g for 45 min and the resulting supernatant was used to measure cytosolic ALDH activity. For particulate ALDH assay, the pellet (and homogenate for total ALDH) was resuspended in homogenizing buffer and treated with 0.25% Triton X-100 for 30 min at 4°C. The solubilized preparations were centrifuged at 48,000 g for 30 min and the supernatants were drawn off for ALDH determinations.
ALDH activity was measured by monitoring the reduction of NAD or NADp for 5-6 min at […] at 37°C in DU70 spectrophotometer (Beckman). The assay mixture contained 50 mM potassium phosphate buffer, pH 7.4, 2.0 mM NAD (or NADP) and 1.0 mM EDTA. The reaction was started by adding the substrate (SDA or other aldehyde) to the prewarmed (5 min at 37°C) assay mixture containing enzyme preparation. Pyrazole (0.1 mM) was added particularly for liver enzyme, to inhibit alcohol dehydrogenase. The apparent Km and maximum velocity (Vmax) values were calculated using a Lineweaver-Burk plot based on the estimation of the slope by regression analysis. Enzyme activity was expressed as mU (nmoles/min) per mg of protein. Protein contents were determined by the Bradford method, using bovine serum albumin as the standard.

Ornithine decarboxylase, sequence (P00860 whole entry): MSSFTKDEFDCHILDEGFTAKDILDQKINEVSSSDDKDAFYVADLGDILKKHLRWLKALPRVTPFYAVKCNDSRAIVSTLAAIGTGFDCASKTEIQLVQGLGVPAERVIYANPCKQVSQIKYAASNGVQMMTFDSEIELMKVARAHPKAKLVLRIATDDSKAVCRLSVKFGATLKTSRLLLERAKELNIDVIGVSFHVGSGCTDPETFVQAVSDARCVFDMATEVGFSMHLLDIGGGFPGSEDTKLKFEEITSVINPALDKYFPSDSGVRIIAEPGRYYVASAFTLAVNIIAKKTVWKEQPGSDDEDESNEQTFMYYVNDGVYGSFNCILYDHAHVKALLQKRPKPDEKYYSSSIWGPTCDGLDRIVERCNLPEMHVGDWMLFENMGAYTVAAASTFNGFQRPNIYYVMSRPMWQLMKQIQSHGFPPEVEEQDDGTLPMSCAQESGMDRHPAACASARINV

Structure (SMILES): O=CCCNCCCCNCCC=O [SDA, NN′-Bis-(3-propionaldehyde)-1-4-diaminobutane]
- footpad swelling (B6D2F1 mice; given both systemically (i.p.) and locally (i.m.), 24 or 48 hours after challenge, Figure 7): reduced swelling
- footpad swelling (B6D2F1 mice; given only after challenge, 24 hours later): swelling similar to that of mice receiving control vehicles
- footpad swelling (B6D2F1 mice; given only after challenge, 48 hours later): reduced swelling compared to that of the control group
- suppression of B lymphocyte proliferation (Human B lymphocytes): a much greater quantity was required
- inhibition of ODC (in words) (Ornithine decarboxylase): inhibited both of the key enzymes
- [³H]-thymidine incorporation after DEAB pretreatment (Murine bone marrow cells; DEAB (30 µM) pretreatment): higher susceptibility at lower concentrations of SDA
- [³H]-thymidine incorporation (Murine bone marrow cells; treated in PBS based medium, cultured 3 days): dose dependent decrease
- skin graft survival (C3H mice; SDA s.c., all 3 doses, especially 10 mg/kg and 20 mg/kg, Figure 6): prolonged skin graft survival
- efficacy in skin graft experiments compared with CsA (C3H mice; mouse, in vivo): more effective than a comparable dose of CsA
- enzyme activity in L1210/0 cells (ALDH): did not exhibit any detectable enzyme activity
